{
  "source": "patent US10111880B2",
  "about": "“Compounds for the treatment of diabetes and disease complications arising from same” (BEN-GURION UNIVERSITY OF THE NEGEV RESEARCH AND DEVELOPMENT …, priority 2013, dated 2018)",
  "key": {"[1]": {"test_system": "STZ-induced diabetic ICR mice", "experiment": "Blood glucose in STZ-induced diabetic ICR mice, long-term AGS treatment (5 months) with or without insulin", "format": "in vivo, mouse", "set-up": "Blood Glucose At 101 day / Blood Glucose At 111 day: unit: mg/dL", "settings": "for % reduction in blood glucose level / Blood glucose level Average: after 12 hours fast, day 142; for Blood glucose level Average: in mg/dL (unit assumed)", "description": "[0182]7 week-old female ICR mice were intra-peritoneally injected with STZ (40 mg\\Kg) for 5 consecutive days. Non-diabetic mice received citrate buffer (pH 4.3, cold), which served as the vehicle controls for this study. AGS-500 (6 mg\\Kg) was then administered subcutaneously every 2 days, for 5 months, on the first day after STZ administration. A further control group, where DMSO was administered in accordance with this regimen, was included. Mice were divided into the following 6 groups (10 mice per group except STZ only-5 mice): • STZ only • STZ+DMSO • Citrate+DMSO 1% every day • STZ+AGS-499 (6 mg/kg) injected every day S.C • STZ+AGS-500 (6 mg/kg) injected every day S.C • STZ+AGS-500 (6 mg/kg) injected every other day S.C Mice were weighed and blood glucose levels were measured using a free style glucometer. Food consumption was also measured 24 hours prior to STZ injection. The concentration of STZ to be injected was calculated. STZ at 40 mg/kg was injected ip for 5 consecutive days. AGS treatment was administered one day following the last STZ injection. The establishment of diabetes was validated by the assessment of blood glucose levels performed every 3 days (at the beginning) and once a week after 59 days from the initiation of the experiment. Blood glucose levels over 200 mg/dl (measured 3 consecutive times) indicated a diabetic state. At 80 days from the initiation of the experiments each group was divided to 2 subgroups which received either insulin (4 units/kg) or acetic acid (0.015%) both in HEPES buffer (pH 7.45) injected every 48 hours. Mice were sacrificed after 5 months from the initiation of the experiments. Blood glucose levels were monitored every 3 days. Ten weeks after the beginning of this study, each group was divided into 2 sub-groups, one of each also received insulin (4 U\\Kg) every 2 days, except for the non-diabetic sub-groups. Acetic acid (1%) served as the vehicle control."}, "[2]": {"test_system": "STZ-induced diabetic ICR mice", "experiment": "Glucose Tolerance Test (GTT) in STZ diabetic mice after 2 and 5 months", "format": "in vivo, mouse", "settings": "for Improvement (fold): GTT after 2 months; for Fold of Improvement: GTT after 5 months; for Time needed for the Pancreas to cope glucose load after 5 months / Time needed for the Pancreas to cope with glucose load after 2 months: GTT", "description": "Glucose Tolerance Test: Animals were fasted for 12 hr with free access to water. Blood-glucose levels after fast were measured and then the animals received an i.p. injection of glucose (1.5 g/kg). Blood samples were taken at several intervals (for the duration of 2 hr), when glucose levels above 200 mg/dl at 2 hr confirmed a diagnosis of diabetes.\n[…] Mice were subjected to 12 hours fast (with water) weighed, blood glucose level was measured and Glucose at 1.5 gr/kg in no more than 100 μl was injected IP. Blood glucose levels were measured at 10, 20, 30, 60, 90 and 120 min after glucose injection. glucose tolerance test."}, "[3]": {"test_system": "insulin expressing beta islets", "experiment": "Immunofluorescence of pancreatic slices with anti-insulin antibody, insulin expressing beta islets in mice", "format": "in vivo, mouse", "description": "The light grey (originally red) stains insulin producing cells, and the darker grey (originally blue) is for DAPI staining. Density of insulin staining per area was measured using “Image J” software (D-E). The results are mean±S.E.; n=4. ***p<0.005. Magnification: ×10."}, "pancreatic β-cells": {"test_system": "pancreatic β-cells", "experiment": "Insulin immuno-histochemical and immuno-fluorescence staining of pancreas, β-cell mass in STZ-injected rats", "format": "in vivo, rat", "settings": "FIG. 5A, 5B, 5D", "description": "Rats were treated as described in Example 1, pancreata were removed fixed in 4% formalin, and embedded in paraffin for immuno-histochemical and immuno-fluorescence staining using a specific anti-insulin antibody and serial histopathologic sections were prepared. […] Brown staining in FIG. 5A indicates insulin staining positivity by immunohistochemistry, and red staining (FIGS. 5B and 5C) indicates insulin staining positivity by immunofluorescence, blue cellular staining was effected with Dapi). The Cell density and density of insulin staining per area was measured using “Image J” software (FIGS. 5D and 5E). The results are presented as mean±S.E.; n=4. ***p<0.005."}, "[4]": {"test_system": "STZ-induced diabetic ICR mice", "experiment": "Blood glucose over time in STZ mice, short course (2 weeks) AGS treatment with or without insulin", "format": "in vivo, mouse", "description": "(§1) Eight weeks-old female ICR mice were injected intraperitoneally (IP) with Streptozotocin (STZ), at a dose of 40 mg/Kg, for 5 consecutive days. The following day and onward, mice were administered the AGS compounds (499 or 500, as indicated), at a dose of 6 mg/Kg, either subcutaneously or orally, every other day. Blood glucose levels were monitored daily.\n(§2) After the establishment of diabetes (i.e. three consecutive blood glucose measurements of >200 mg/dL), mouse groups were further sub-divided into 2 sub-groups, one of each received insulin (gradual administration of 0.5-6 units/Kg, over a period of 2 weeks) subcutaneously, every other day. Blood glucose levels were monitored daily."}, "[5]": {"test_system": "STZ-induced diabetic ICR mice", "experiment": "Glucose tolerance test in STZ mice after short course (2 weeks) AGS treatment", "format": "in vivo, mouse", "description": "as §1, §2\nGlucose tolerance tests were also performed as follows: After two weeks mice were fasted for 12 hours, then injected with D-glucose (1.5 g/Kg, IP) and blood glucose levels were examined at 0, 10, 20, 30, 60, 90 and 120 minutes, in order to evaluate pancreatic function."}},
  "note": "Entries after “also recorded” stand apart in the source; their conditions may differ.",
  "data": [
    {"smiles": "CC(c1cc(Br)c(O)c(Br)c1)(c1cc(Br)c(O)c(Br)c1)c1cc(Br)c(O)c(Br)c1", "note": "[AGS-500, 1,1,1-tris (4-hydroxy-3,5-dibromo-phenyl)-ethane]", "values": [
      {"measurement": "blood glucose levels with time", "setting": "[1]; AGS 500 every 48 hrs, without insulin", "result": "best effect in reducing blood glucose levels with time"},
      {"measurement": "circulating glucose levels, AGS-500 alone versus combined AGS-500 and insulin", "setting": "[1]; FIG. 2F", "result": "greatest therapeutic effect"},
      {"measurement": "% reduction in blood glucose level", "setting": "[1]; 6 mg/kg s.c. daily", "result": 20, "unit": "%"},
      {"measurement": "Blood glucose level Average", "setting": "[1]; 6 mg/kg s.c. daily", "result": 317.4},
      {"measurement": "% reduction in blood glucose level", "setting": "[1]; 6 mg/kg s.c. every 48 hrs", "result": 32, "unit": "%"},
      {"measurement": "Blood glucose level Average", "setting": "[1]; 6 mg/kg s.c. every 48 hrs", "result": 270},
      {"measurement": "% reduction In blood Glucose 101 day", "setting": "[1]; no insulin, daily", "result": 15, "unit": "%"},
      {"measurement": "Blood Glucose At 101 day", "setting": "[1]; no insulin, daily", "result": 600},
      {"measurement": "Blood Glucose At 111 day", "setting": "[1]; no insulin, daily", "result": 450},
      {"measurement": "reduction In blood Glucose 111 day", "setting": "[1]; no insulin, daily", "result": 25, "unit": "%"},
      {"measurement": "% reduction In blood Glucose 101 day", "setting": "[1]; no insulin, every 48 hrs", "result": 43, "unit": "%"},
      {"measurement": "Blood Glucose At 101 day", "setting": "[1]; no insulin, every 48 hrs", "result": 400},
      {"measurement": "Blood Glucose At 111 day", "setting": "[1]; no insulin, every 48 hrs", "result": 390},
      {"measurement": "reduction In blood Glucose 111 day", "setting": "[1]; no insulin, every 48 hrs", "result": 35, "unit": "%"},
      {"measurement": "Blood Glucose At 101 day", "setting": "[1]; with insulin (4 units/kg every 48 hours), AGS daily", "result": 460},
      {"measurement": "% reduction In blood Glucose 101 day", "setting": "[1]; with insulin, AGS daily", "result": 34, "unit": "%"},
      {"measurement": "Blood Glucose At 111 day", "setting": "[1]; with insulin, AGS daily", "result": 400},
      {"measurement": "reduction In blood Glucose 111 day", "setting": "[1]; with insulin, AGS daily", "result": 34, "unit": "%"},
      {"measurement": "% reduction In blood Glucose 101 day", "setting": "[1]; with insulin, AGS every 48 hrs", "result": 32, "unit": "%"},
      {"measurement": "Blood Glucose At 101 day", "setting": "[1]; with insulin, AGS every 48 hrs", "result": 480},
      {"measurement": "Blood Glucose At 111 day", "setting": "[1]; with insulin, AGS every 48 hrs", "result": 400},
      {"measurement": "reduction In blood Glucose 111 day", "setting": "[1]; with insulin, AGS every 48 hrs", "result": 34, "unit": "%"},
      {"measurement": "Improvement (fold)", "setting": "[2]; daily", "result": 1.5, "unit": "fold"},
      {"measurement": "Improvement (fold)", "setting": "[2]; every 48 hrs", "result": 3, "unit": "fold"},
      {"measurement": "Fold of Improvement", "setting": "[2]; daily", "result": 3, "unit": "fold"},
      {"measurement": "Fold of Improvement", "setting": "[2]; every 48 hrs", "result": "normal"},
      {"measurement": "Time needed for the Pancreas to cope glucose load after 5 months", "setting": "[2]; daily", "result": 30, "unit": "min"},
      {"measurement": "Time needed for the Pancreas to cope with glucose load after 2 months", "setting": "[2]; daily", "result": 60, "unit": "min"},
      {"measurement": "Time needed for the Pancreas to cope glucose load after 5 months", "setting": "[2]; every 48 hrs", "result": 20, "unit": "min"},
      {"measurement": "Time needed for the Pancreas to cope with glucose load after 2 months", "setting": "[2]; every 48 hrs", "result": 30, "unit": "min"},
      {"measurement": "GTT test performed after 5 months", "setting": "[2]; treatment every 48 hours, FIG. 4", "result": "significant improvement in the GTT test"},
      {"measurement": "β-cell Mass in STZ-injected mice", "setting": "[3]; immunofluorescence, FIG. 5C", "result": "preserved β-cell Mass"},
      {"measurement": "No of insulin expressing beta islets/mouse", "setting": "[3]; no insulin, daily", "result": 5.6},
      {"measurement": "increase in Insulin expressing Beta islets", "setting": "[3]; no insulin, daily", "result": 215, "unit": "%"},
      {"measurement": "No of insulin expressing beta islets/mouse", "setting": "[3]; no insulin, every 48 hrs", "result": 5},
      {"measurement": "increase in Insulin expressing Beta islets", "setting": "[3]; no insulin, every 48 hrs", "result": 192, "unit": "%"},
      {"measurement": "No of insulin expressing beta islets/mouse", "setting": "[3]; with insulin, AGS daily", "result": 2.5},
      {"measurement": "No of insulin expressing beta islets/mouse", "setting": "[3]; with insulin, AGS every 48 hrs", "result": 3},
      {"measurement": "increase in Insulin expressing Beta islets", "setting": "[3]; with insulin, AGS every 48 hrs", "result": 115, "unit": "%"},
      {"measurement": "β-cell mass in the pancreas of STZ-injected rats", "setting": "pancreatic β-cells", "result": "significantly larger β-cell mass; also recorded: preserved β-cell Mass"},
      {"measurement": "circulating glucose levels over time", "setting": "[4]; 6 mg/Kg every other day, short course (2 weeks), FIG. 13-1", "result": "lowering circulating glucose levels significantly"},
      {"measurement": "circulating glucose levels over time, combined with insulin therapy", "setting": "[4]; short course, insulin 0.5-6 units/Kg, FIG. 13-2", "result": "synergistic contribution"},
      {"measurement": "mean blood glucose levels in a glucose tolerance test", "setting": "[5]; 6 mg/Kg subcutaneously or orally every other day, FIG. 11", "result": "reduced mean blood glucose levels"},
      {"measurement": "effect of adding insulin on circulating glucose levels in a glucose tolerance test", "setting": "[5]; AGS subcutaneously (AGS500 also orally), FIG. 12", "result": "adding insulin did not appreciably lower the circulating levels"}
    ]}
  ]
}
